A short description of the data set: Stability of ^89Zr complexes in human serum at 37° C. for 7 d (ITLC, SEC). The following applies: ^89Zr-ligand complex, human serum, 7 d, ITLC.

Molecules are shown by their SMILES.

Procedure: Seven day old samples of the Zr-ligand complexes were run down a size exclusion column to differentiate protein and ligand.
Serum stability and immunoreactivity of ^89Zr-complexes were evaluated. To determine the stability in serum, ^89Zr-complexes were incubated in human serum at 37° C. for 7 d. The percentage of intact species was monitored by ITLC (Table 9).
^89Zr-ligand and ^89Zr-ligand-antibody complexes were prepared according to the radiolabeling protocol as described above. For each ^89Zr complex, samples were made consisting of 900 μL human serum and 100 μL of the ^89Zr species and were placed in a heat block at 37° C. with agitation. Samples were monitored using radio-TLC before being added to the serum and then after 1 week of incubation. The stability of the complexes was measured as the percentage of ^89Zr that was retained at the origin of the ITLC strip and therefore still intact.

Consider `CC(=O)N(O)CCCCCNC(=O)CCC(=O)N(O)CCCCCNC(=O)CCC(=O)N(O)CCCCCNC(=S)Nc1ccc(N=C=S)cc1` (89Zr complex, metal not drawn) [p-SCN-Bn-DFO], for which the “percentage of intact species, Ligand Only” value is 97.7±0.2%.

Values taken from US10821195B2, “Compositions for therapeutics, targeted PET imaging and methods of their use” (Memorial Sloan Kettering Cancer Center, priority 2015, dated 2020).
